# Values quoted from earlier work, collected in patent US20260325503A1, “LONG-ACTING FORMULATIONS” (JANSSEN PHARMACEUTICA NV, priority 2022, published 2026).
# How the values were obtained:
# [1] = tested on: mycobacterial ATP synthase; settings: mycobacterial ATP synthase versus eukaryotic mitochondrial ATP synthase
# [2] = tested on: M. tuberculosis
# [3] = tested on: Mycobacterium leprae
compound,measurement,setting,value
COc1nc2ccc(Br)cc2cc1[C@@H](c1ccccc1)[C@@](O)(CCN(C)C)c1cccc2ccccc12 [bedaquiline],selectivity index,[1],more than 20000
same,minimal dose killing 99% of bacilli,[2],30 mg/kg/wk
same,minimal dose killing 99% of bacilli,[3]; M. lepra,< 5.0 mg/kg/wk
same,Bactericidal activity (in words),"[3]; mycobacterium leprae, mice",bactericidal
